Reference: article PMC8907848 (Frontiers in Chemistry, 2022)
Like-named read-outs stand apart in the source and are kept apart here.

Experiments:
FIPV M^pro [1] = molecular target: T1, FIPV M^pro (Feline coronavirus, UniProt Q98VG9); assay: FRET-based cleavage assay with purified FIPV Mpro (Ki and IC50 determination); type: biochemical, FIPV WSU-79/1146
Protocol: A fluorescence resonance energy transfer (FRET)–based cleavage assay was performed using a synthetic peptide fluorescent substrate containing the cleavage site of FIPV M^pro [Abz-SVTLQ↓SG-Tyr (NO2)-R] as described previously ([Vuong et al., 2020]; [Vuong et al., 2021]). […] The enzymatic reactions using 1–500 μM of FRET substrate in activity buffer (25 mM Bis-Tris, 1 mM DTT, pH 7.0) were started with the addition of protease. For IC50 determination, 100 nM of FIPV M^pro was incubated with an inhibitor concentration range of 0.25 nM–100 µM in activity buffer. The reaction was started with 40 µM of FRET substrate. The fluorescence signal of the FRET peptide cleavage product was monitored at an emission wavelength of 420 nm with excitation at 320 nm, using a Cytation 5 Imaging Multi-Mode Reader (BioTek) for 7 min at 37°C. The kinetic data were analyzed using computer-fit calculation (Prism 9.0, GraphPad Software). […] The experiments were performed in triplicate.

SARS-CoV-2 M^pro = details: read-out: SARS-CoV-2 M^pro IC50; mean ± SEM, n = 3; ref Vuong et al. (2021); cited from earlier work
SARS-CoV M^pro = details: ref Arutyunova et al., 2021; cited from earlier work
FIPV M^pro [2] = molecular target: T1, FIPV M^pro; design: method as in Kim et al., 2012; details: ref Kim et al., 2012; cited from earlier work
FIP virus (FIPV) = system: FIP virus (FIPV); design: method as in Kim et al., 2016; Pedersen et al., 2018; details: experimentally induced and naturally occurring FIP; ref Kim et al., 2016; Pedersen et al., 2018; cited from earlier work
[3] = molecular target: Feline infectious peritonitis virus main protease (FIPV M^pro, FIPV WSU-79/1146) (feline infectious peritonitis virus (FIPV WSU-79/1146)); assay: crystal structure; FIPV M^pro at 10 mg/ml incubated with 5x molar excess of GC373 or GC376 (4°C, 2 h), sitting drop, room temperature; GC376: 2.0 M ammonium sulfate, 0.1 M Bis-Tris pH 5.5; GC373: 0.2 M calcium chloride, 0.1 M MES, 20% PEG 6000, pH 6.0

T1 sequence (Q98VG9 2904-3205): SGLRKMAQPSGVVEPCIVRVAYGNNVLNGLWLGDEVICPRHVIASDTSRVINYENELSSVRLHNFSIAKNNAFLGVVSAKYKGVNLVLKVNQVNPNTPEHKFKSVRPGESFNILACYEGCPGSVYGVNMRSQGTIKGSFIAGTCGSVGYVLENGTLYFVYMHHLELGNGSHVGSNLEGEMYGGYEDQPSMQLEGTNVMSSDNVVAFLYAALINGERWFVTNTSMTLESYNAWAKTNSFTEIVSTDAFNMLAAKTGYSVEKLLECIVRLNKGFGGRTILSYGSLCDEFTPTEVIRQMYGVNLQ

| Compound | IC50 (FIPV M^pro [1]) | IC50 (SARS-CoV-2 M^pro) | other results |
| --- | --- | --- | --- |
| O=C[C@H](C[C@@H]1CCNC1=O)NC(=O)[C@H](CC1CC1)NC(=O)OCc1ccccc1 [1a] | 0.1 ± 0.07 µM |  |  |
| CC(C)C[C@H](NC(=O)OCc1cccc(F)c1)C(=O)N[C@H](C=O)C[C@@H]1CCNC1=O [1d] | 0.07 ± 0.01 µM | 0.13 ± 0.04 µM |  |
| CC(C)C[C@H](NC(=O)OCCc1cccc(Cl)c1)C(=O)N[C@H](C=O)C[C@@H]1CCNC1=O [1e] | 0.13 ± 0.02 µM | 0.15 ± 0.05 µM |  |
| CC(C)C[C@H](NC(=O)O[C@@H](C)c1ccccc1)C(=O)N[C@H](C=O)C[C@@H]1CCNC1=O [1g] | 0.43 ± 0.09 µM | 0.27 ± 0.09 µM |  |
| O=C(N[C@@H](CC1CC1)C(=O)N[C@@H](C[C@@H]1CCNC1=O)C(O)S(=O)(=O)O)OCc1cccc(F)c1 (some centres unmarked) [2c] | 0.03 ± 0.01 µM | 0.07 ± 0.01 µM |  |
| O=C(N[C@@H](CC1CC1)C(=O)N[C@@H](C[C@@H]1CCNC1=O)C(O)S(=O)(=O)O)OCCc1cccc(Cl)c1 (some centres unmarked) [2d] | 0.05 ± 0.02 µM |  |  |
| COc1cccc2[nH]c(C(=O)N[C@@H](CC3CC3)C(=O)N[C@@H](C[C@@H]3CCNC3=O)C(O)S(=O)(=O)O)cc12 (some centres unmarked) [2e] | 0.06 ± 0.02 µM |  |  |
| CC(C)CC(NC(=O)OCc1ccccc1)C(=O)NC(C=O)CC1CCNC1=O (centres unmarked) [GC373] |  |  | Ki against SARS-CoV Mpro (in words) (SARS-CoV M^pro): nanomolar range |
| CC(C)CC(NC(=O)OCc1ccccc1)C(=O)NC(CC1CCNC1=O)C(O)S(=O)(=O)O (centres unmarked) [GC376, reference compound] |  |  | IC50 (FIPV M^pro [1]; 100 nM FIPV Mpro, 40 µM FRET substrate, 37°C, mean ± SEM, n = 3, read-out: FIPV M^pro IC50): 0.13 ± 0.02 µM; Ki (FIPV M^pro [1]; read-out: Calculated Ki): 0.0021 µM; IC50 against FIPV Mpro (in words) (FIPV M^pro [2]): sub-micromolar; Effect on progression of FIP in cats (FIP virus (FIPV)): successful in reversing the progression |
| Feline infectious peritonitis virus main protease (FIPV M^pro, FIPV WSU-79/1146) (enzyme) |  |  | stoichiometry N [3]: 2 |
